System: ABCA-1
Experiment: Measurement of ABCA-1 protein expression (western blot) in liver of treated ZDF rats
Assay type: in vivo, ZDF (Zucker diabetic fatty) rats
Conditions: treated at 0, 2 and 4 hrs, western blot quantitated by densitometry, normalized to time-point vehicle controls, time-course (FIG. 2)
Protocol: FIG. 2 illustrates the time-course of the effect of treatment on hepatic ABCA1 protein expression in ZDF rats. Rats were treated with a test compound of Formula I at 0, 2 and 4 hrs. […] ABCA1 protein expression was measured by western blot and quantitated by densitometry, Time-point vehicle controls were used to normalize ABCA1 expression at each time-point.
Cellular ABCA-1 protein expression in cells or tissues were quantitated from homogenates prepared from tissue or cells homogenized in a lysis buffer containing protease inhibitors. Lysate proteins were separated by SDS-PAGE and western blotted for ABCA11 and a housekeeping protein. ABCA-1 was detected with a mouse monoclonal antibody that cross-reacts with human, rat and mouse. β-Actin (or other commonly used normalization proteins) were detected with the appropriate commercial antibody. Using the described assay, the effect of treatment on hepatic ABCA1 protein expression in ZDF rats was determined. Rats were treated with a test compound of Formula I at 0, 2 and 4 hrs. […] Time-point vehicle controls were used to normalize ABCA1 expression at each time-point. The test compound of Formula I used in the experiments of FIG. 2 was 2-{6-[((1R,2R)-2-hydroxycyclopentyl)amino]purin-9-yl}(4S,5S,2R,3R)-5-[(2-fluorophenylthio)methyl]oxolane-3,4-diol.

SMILES: O[C@@H]1[C@H](O)[C@@H](CSc2ccccc2F)O[C@H]1n1cnc2c(N[C@@H]3CCC[C@H]3O)ncnc21 [2-{6-[((1R,2R)-2-hydroxycyclopentyl)amino]purin-9-yl}(4S,5S,2R,3R)-5-[(2-fluorophenylthio)methyl]oxolane-3,4-diol]
- hepatic ABCA1 protein expression: increases ABCA-1 protein expression with time

From patent US20090203689A1, “ABCA-1 ELEVATING COMPOUNDS AND METHODS” (priority 2008, published 2009)
